# What was measured:
# [1] = system: BT474 [human breast carcinoma, overexpressing HER2 (ErbB2)]; test: In vitro tumor cell proliferation assay (Cell Titer-Glo luminescent cell viability), BT474 cells; type: cell-based; conditions: BT-474, 72 h, 72 hours of drug exposure, Cell Titer-Glo readout, read-out: IC50, anti-proliferative activity in BT474 cells
# [2] = system: A431 cells [human epidermoid carcinoma, overexpressing HER1 (EGFR, ErbB1)]; test: In vitro tumor cell proliferation assay (Cell Titer-Glo luminescent cell viability), A431 cells; type: cell-based; conditions: A-431, 72 h, 72 hours of drug exposure, Cell Titer-Glo readout, read-out: IC50, anti-proliferative activity in A431 cells
Structure (SMILES),IC50 [1] [µM],IC50 [2] [µM]
"OCCc1ccc2c(c1)sc1ncnc(Nc3ccc4c(cnn4Cc4ccccn4)c3)c12 [Example 132, 2-(4-{[1-(pyridin-2-ylmethyl)-1H-indazol-5-yl]amino}[1]benzothieno [2,3-d]pyrimidin-7-yl)ethanol]",≤ 0.5,≤ 5
"OCCc1ccc2c(c1)sc1ncnc(Nc3ccc4c(ccn4Cc4ccccc4)c3)c12 [Example 133, 2-{4-[(1-benzyl-1H-indol-5-yl)amino][1]benzothieno[2,3-d]pyrimidin-7-yl}ethanol]",≤ 0.5,≤ 50
"CCOC(=O)Cc1ccc2c(c1)sc1ncnc(Nc3ccc(OCc4cscn4)c(Cl)c3)c12 [Example 134, ethyl (4-{[3-chloro-4-(1,3-thiazol-4-ylmethoxy)phenyl]amino}[1]benzothieno[2,3-d]pyrimidin-7-yl)acetate]",≤ 5,≤ 50
"O=C(O)Cc1ccc2c(c1)sc1ncnc(Nc3ccc(OCc4cscn4)c(Cl)c3)c12 [Example 135, (4-{[3-chloro-4-(1,3-thiazol-4-ylmethoxy)phenyl]amino}[1]benzothieno[2,3-d]pyrimidin-7-yl) acetic acid]",≤ 5,≤ 50
"CN(C)[C@@H]1CCN(C(=O)Cc2ccc3c(c2)sc2ncnc(Nc4ccc(OCc5cscn5)c(Cl)c4)c23)C1 [Example 136, N-[3-chloro-4-(1,3-thiazol-4-ylmethoxy)phenyl]-7-{2-[(3R)-3-(dimethylamino)pyrrolidin-1-yl]-2-oxoethyl}[1]benzothieno[2,3-d] pyrimidin-4-amine]",≤ 0.5,≤ 5
"O=C(Cc1ccc2c(c1)sc1ncnc(Nc3ccc(OCc4cscn4)c(Cl)c3)c12)N1CCOCC1 [Example 137, N-[3-chloro-4-(1,3-thiazol-4-ylmethoxy)phenyl]-7-(2-morpholin-4-yl-2-oxoethyl)[1]benzothieno [2,3-d]pyrimidin-4-amine]",≤ 5,≤ 50
"CN1CCN(C(=O)Cc2ccc3c(c2)sc2ncnc(Nc4ccc(OCc5cscn5)c(Cl)c4)c23)CC1 [Example 138, N-[3-chloro-4-(1,3-thiazol-4-ylmethoxy)phenyl]-7-[2-(4-methylpiperazin-1-yl)-2-oxoethyl][1]benzothieno[2,3-d] pyrimidin-4-amine]",≤ 5,≤ 5
"O=C(Cc1ccc2c(c1)sc1ncnc(Nc3ccc(OCc4cscn4)c(Cl)c3)c12)NCCCN1CCOCC1 [Example 139, 2-(4-{[3-chloro-4-(1,3-thiazol-4-ylmethoxy)phenyl]amino}[1]benzothieno[2,3-d]pyrimidin-7-yl)-N-(3-morpholin-4-ylpropyl) acetamide]",≤ 5,≤ 50
"O=C(Cc1ccc2c(c1)sc1ncnc(Nc3ccc(OCc4cscn4)c(Cl)c3)c12)NCCN1CCOCC1 [Example 140, 2-(4-{[3-chloro-4-(1,3-thiazol-4-ylmethoxy)phenyl]amino}[1]benzothieno[2,3-d]pyrimidin-7-yl)-N-(2-morpholin-4-ylethyl) acetamide]",≤ 5,≤ 50
"O=C(Cc1ccc2c(c1)sc1ncnc(Nc3ccc(OCc4cscn4)c(Cl)c3)c12)NCCO [Example 141, 2-(4-{[3-chloro-4-(1,3-thiazol-4-ylmethoxy)phenyl]amino}[1]benzothieno[2,3-d]pyrimidin-7-yl)-N-(2-hydroxyethyl)acetamide]",≤ 5,≤ 50
"CN(C)CCNC(=O)Cc1ccc2c(c1)sc1ncnc(Nc3ccc(OCc4cscn4)c(Cl)c3)c12 [Example 142, 2-(4-{[3-chloro-4-(1,3-thiazol-4-ylmethoxy)phenyl]amino}[1]benzothieno[2,3-d]pyrimidin-7-yl)-N-[2-(dimethylamino)ethyl] acetamide]",≤ 0.5,≤ 50
"CN(C)[C@H]1CCN(C(=O)Cc2ccc3c(c2)sc2ncnc(Nc4ccc(OCc5cscn5)c(Cl)c4)c23)C1 [Example 143, N-[3-chloro-4-(1,3-thiazol-4-ylmethoxy)phenyl]-7-{2-[(3S)-3-(dimethylamino)pyrrolidin-1-yl]-2-oxoethyl}[1]benzothieno[2,3-d] pyrimidin-4-amine]",≤ 0.5,≤ 5
"O=C(Cc1ccc2c(c1)sc1ncnc(Nc3ccc(OCc4cscn4)c(Cl)c3)c12)NN1CCOCC1 [Example 144, 2-(4-{[3-chloro-4-(1,3-thiazol-4-ylmethoxy)phenyl]amino}[1]benzothieno[2,3-d]pyrimidin-7-yl)-N-morpholin-4-ylacetamide]",≤ 5,≤ 50
"O=C(Cc1ccc2c(c1)sc1ncnc(Nc3ccc(OCc4cscn4)c(Cl)c3)c12)NCCOCCO [Example 145, 2-(4-{[3-chloro-4-(1,3-thiazol-4-ylmethoxy)phenyl]amino}[1]benzothieno[2,3-d]pyrimidin-7-yl)-N-[2-(2-hydroxyethoxy)ethyl] acetamide]",≤ 5,≤ 50
"CCN1CCN(CCNC(=O)Cc2ccc3c(c2)sc2ncnc(Nc4ccc(OCc5cscn5)c(Cl)c4)c23)CC1 [Example 146, 2-(4-{[3-chloro-4-(1,3-thiazol-4-ylmethoxy)phenyl]amino}[1]benzothieno[2,3-d]pyrimidin-7-yl)-N-[2-(4-ethylpiperazin-1-yl)ethyl] acetamide]",≤ 0.5,≤ 50

# — patent US7750017B2, “Heterocycles” (Bayer Schering Pharma Aktiengesellschaft, priority 2004, dated 2010)
